Here are results for four sequences from publication PMC11133627, “CATH-2-derived antimicrobial peptide inhibits multidrug-resistant Escherichia coli infection in chickens” (Frontiers in Cellular and Infection Microbiology, 2024).

Ends that are not written are not given here.

Experiment [1] relates to E. coli (ATCC 8739). The experiment can be described thus: microbe, parasite or virus in culture. In kind it is cell-based, Escherichia coli. The settings on record: for MIC against E. coli ATCC 8739: ATCC 8739, 18 h; for MBC against E. coli ATCC 8739: ATCC 8739, 24 h. The protocol: (§1) The minimum inhibitory concentrations (MICs) of the AMPs were determined using the microbroth dilution technique ([van Harten et al., 2021]). One hundred microliters of bacterial suspension at a concentration of 1×10^6 CFU/mL was pipetted into a 96-well plate. Then, 100 μL of AMP or gentamicin at various concentrations was added, while the bacterial suspension without AMPs and blank medium were used as controls.

Experiment [2] relates to E. coli clinical isolate E12. The experiment can be described thus: microbe, parasite or virus in culture. In kind it is cell-based, Escherichia coli. The note with it: for MIC against E. coli E12: clinical isolate E12, 18 h; for MBC against E. coli E12: clinical isolate E12, 24 h. The protocol: as §1
For experiment [3], the system named is E. coli clinical isolate E14. The experiment can be described thus: microbe, parasite or virus in culture. Type of experiment: cell-based, Escherichia coli. The note with it: for MIC against E. coli E14: clinical isolate E14, 18 h; for MBC against E. coli E14: clinical isolate E14, 24 h. As for the experimental part:
as §1

Experiment [4] has as its system E. coli clinical isolate E16. The experiment can be described thus: microbe, parasite or virus in culture. Type of experiment: cell-based, Escherichia coli. The settings on record: for MIC against E. coli E16: clinical isolate E16, 18 h; for MBC against E. coli E16: clinical isolate E16, 24 h. The protocol:
as §1

Experiment [5] deals with E. coli clinical isolate E18. Nature of the experiment: microbe, parasite or virus in culture. The settings on record: for MIC against E. coli E18: clinical isolate E18, 18 h; for MBC against E. coli E18: clinical isolate E18, 24 h. In kind it is cell-based, Escherichia coli. The protocol: as §1
Experiment [6] concerns E. coli clinical isolate E9. Nature of the experiment: microbe, parasite or virus in culture. In kind it is cell-based, Escherichia coli. The note with it: for MIC against E. coli E9: clinical isolate E9, 18 h; for MBC against E. coli E9: clinical isolate E9, 24 h. The protocol: as §1
The test system of experiment [7] is E. coli clinical isolate E1. The experiment can be described thus: microbe, parasite or virus in culture. The settings on record: for MIC against E. coli E1: clinical isolate E1, 18 h; for MBC against E. coli E1: clinical isolate E1, 24 h. As for the experimental part: as §1
Experiment [8] has as its system E. coli (ATCC 8739). Type of experiment: cell-based, Escherichia coli. The note with it: ATCC 8739, 1 h. The protocol: The MICs of the AMPs against E. coli (ATCC 8739) at different temperatures and physiological salt concentrations were evaluated. The thermal stability of the AMPs was assessed by incubating them at a concentration of 500 μg/mL for 1h at 0, 37, and 100°C, using untreated AMPs as a control. The salt ion stability of the AMPs was determined by incubating them at a concentration of 500 μg/mL in solutions of NaCl (150 mM), KCl (4.5 mM), MgCl2 (1 mM), and CaCl2 (2.5 mM) for 1h, using untreated samples as controls. The changes in the MICs of the AMPs were assessed following these experimental procedures.

Consider RFGRHLRKIIRFRIK [C2-3], for which, in experiment [1], the “MIC against E. coli ATCC 8739” value was determined as 16 µg/mL and the “MBC against E. coli ATCC 8739” value was 16 µg/mL. Besides, in experiment [2], the “MIC against E. coli E12” value was 1 µg/mL and the “MBC against E. coli E12” value is 1 µg/mL. Also, in experiment [3], the “MIC against E. coli E14” value turned out to be 8 µg/mL and the “MBC against E. coli E14” value stood at 8 µg/mL. In addition, in experiment [4], the “MIC against E. coli E16” value amounted to 16 µg/mL and the “MBC against E. coli E16” value was 64 µg/mL. Also, in experiment [5], the “MIC against E. coli E18” value worked out at 16 µg/mL and the “MBC against E. coli E18” value was determined as 32 µg/mL. Further, in experiment [6], the “MIC against E. coli E9” value came to 2 µg/mL and the “MBC against E. coli E9” value came to 4 µg/mL. In experiment [7], the “MIC against E. coli E1” value stood at 32 µg/mL and the “MBC against E. coli E1” value was 64 µg/mL. Moreover, in experiment [8], the “MIC against E. coli (ATCC 8739), Salt Stability CaCl2 (2.5 mM)” value (from here on “MIC against E. coli … (2.5 mM)”) was determined as 8 µg/mL; the “MIC against E. coli (ATCC 8739), Salt Stability KCl (4.5 mM)” value (from here on “MIC against E. coli … (4.5 mM)”) is 4 µg/mL; the “MIC against E. coli (ATCC 8739), Salt Stability MgCl2 (1 mM)” value (“MIC against E. coli … (1 mM)” below) stood at 4 µg/mL; the “MIC against E. coli (ATCC 8739), Salt Stability NaCl (150 mM)” value (shortened to “MIC against E. coli … (150 mM)”) came to 16 µg/mL. Further, in experiment [8], the “MIC against E. coli (ATCC 8739), Thermal Stability 0°C” value (from here on “MIC … Thermal Stability 0°C”) was determined as 16 µg/mL; the “MIC against E. coli (ATCC 8739), Thermal Stability 37°C” value (from here on “MIC … Thermal Stability 37°C”) was 16 µg/mL; the “MIC against E. coli (ATCC 8739), Thermal Stability 100°C” value (shortened to “MIC … Thermal Stability 100°C”) came out at 8 µg/mL.

Turning to RFGRFLRKIRFFRLK [C2-5], in experiment [1], the “MIC against E. coli ATCC 8739” value amounted to 1 µg/mL and the “MBC against E. coli ATCC 8739” value came out at 1 µg/mL. For the same sequence, in experiment [2], the “MIC against E. coli E12” value stood at 8 µg/mL and the “MBC against E. coli E12” value came out at 8 µg/mL. Besides, in experiment [3], the “MIC against E. coli E14” value was found to be 8 µg/mL and the “MBC against E. coli E14” value is 8 µg/mL. For the same sequence, in experiment [4], the “MIC against E. coli E16” value came out at 16 µg/mL and the “MBC against E. coli E16” value was found to be 16 µg/mL. In addition, in experiment [5], the “MIC against E. coli E18” value was found to be 16 µg/mL and the “MBC against E. coli E18” value worked out at 32 µg/mL. For the same sequence, in experiment [6], the “MIC against E. coli E9” value amounted to 64 µg/mL and the “MBC against E. coli E9” value amounted to 128 µg/mL. Besides, in experiment [7], the “MIC against E. coli E1” value was 8 µg/mL and the “MBC against E. coli E1” value stood at 8 µg/mL. Moreover, in experiment [8], the “MIC against E. coli … (2.5 mM)” value was found to be 8 µg/mL; the “MIC against E. coli … (4.5 mM)” value was 4 µg/mL; the “MIC against E. coli … (1 mM)” value was found to be 4 µg/mL; the “MIC against E. coli … (150 mM)” value came out at 4 µg/mL. In experiment [8], the “MIC … Thermal Stability 0°C” value is 1 µg/mL; the “MIC … Thermal Stability 37°C” value came to 1 µg/mL; the “MIC … Thermal Stability 100°C” value amounted to 4 µg/mL.

In the case of RFGRNLRKIRRFWPK [C2-4], in experiment [1], the “MIC against E. coli ATCC 8739” value came out at 16 µg/mL and the “MBC against E. coli ATCC 8739” value was determined as 16 µg/mL. In experiment [2], the “MIC against E. coli E12” value worked out at 16 µg/mL and the “MBC against E. coli E12” value came to 32 µg/mL. Besides, in experiment [3], the “MIC against E. coli E14” value turned out to be 32 µg/mL and the “MBC against E. coli E14” value was determined as 64 µg/mL. Besides, in experiment [4], the “MIC against E. coli E16” value is 64 µg/mL and the “MBC against E. coli E16” value was 64 µg/mL. In addition, in experiment [5], the “MIC against E. coli E18” value came out at 128 µg/mL and the “MBC against E. coli E18” value came to 128 µg/mL. Besides, in experiment [6], the “MIC against E. coli E9” value turned out to be 64 µg/mL and the “MBC against E. coli E9” value was 128 µg/mL. In experiment [7], the “MIC against E. coli E1” value came out at 128 µg/mL and the “MBC against E. coli E1” value was found to be 128 µg/mL. In experiment [8], the “MIC against E. coli … (2.5 mM)” value came out at 32 µg/mL; the “MIC against E. coli … (4.5 mM)” value worked out at 32 µg/mL; the “MIC against E. coli … (1 mM)” value was 16 µg/mL; the “MIC against E. coli … (150 mM)” value was found to be 32 µg/mL. Moreover, in experiment [8], the “MIC … Thermal Stability 0°C” value was 16 µg/mL; the “MIC … Thermal Stability 37°C” value is 16 µg/mL; the “MIC … Thermal Stability 100°C” value came to 16 µg/mL.

Take “RFGRFLRKIRRFRPK [CATH-2 (1-15), reference compound]”: in experiment [1], the “MIC against E. coli ATCC 8739” value was found to be 64 µg/mL and the “MBC against E. coli ATCC 8739” value was determined as 64 µg/mL. Besides, in experiment [2], the “MIC against E. coli E12” value amounted to 8 µg/mL and the “MBC against E. coli E12” value amounted to 8 µg/mL. The “MIC against E. coli E14” value in experiment [3] is 64 µg/mL. Moreover, in experiment [4], the “MIC against E. coli E16” value was 32 µg/mL and the “MBC against E. coli E16” value was 64 µg/mL. In experiment [5], the “MIC against E. coli E18” value amounted to 64 µg/mL and the “MBC against E. coli E18” value was 64 µg/mL. In experiment [6], the “MIC against E. coli E9” value turned out to be 4 µg/mL and the “MBC against E. coli E9” value is 4 µg/mL. Also, in experiment [8], the “MIC against E. coli … (2.5 mM)” value came to 64 µg/mL; the “MIC against E. coli … (4.5 mM)” value came out at 16 µg/mL; the “MIC against E. coli … (1 mM)” value is 16 µg/mL; the “MIC against E. coli … (150 mM)” value was 32 µg/mL. In experiment [8], the “MIC … Thermal Stability 0°C” value was determined as 64 µg/mL; the “MIC … Thermal Stability 37°C” value came to 64 µg/mL; the “MIC … Thermal Stability 100°C” value is 32 µg/mL.
